In US8084645B2, “4-phenylamino-benzaldoxime derivatives and uses thereof as mitogen-activated protein kinase kinase (MEK) inhibitors” (Chugai Seiyaku Kabushiki Kaisha, priority 2003, dated 2011):
Values after ≈ are worked out from the molar mass of the structure shown. Where two headings read alike, the source gives them in different places.

Assays:
[1] = tested on: Human colon cancer cell line HT-29; test: Determination of the activity of inhibiting cell proliferation (Cell Counting Kit-8); type: cell-based; details: HT-29, 96 h, HT29, 2,000 cells/well, incubated four days, read-out: Cell proliferation inhibitory activity (HT29) IC50
Experimental: Human colon cancer cell line HT-29, obtained from American Type Culture Collection (VA, USA), and human non-small cell lung cancer cell line QG56, obtained from Immuno-Biological Laboratories Co., Ltd., were plated at 2,000 cells/well in a 96-well culture plate, and incubated for four days after addition of a MEK inhibitor of a given concentration.

[2] = Determination of stability against mouse liver microsomes; type: in vitro ADME; details: mouse liver microsomes 1 mg protein/mL, 2 mM NADPH, pH 7.4, 37 C; read-out: Stability against mouse liver microsome NADPH+ T1/2
Experimental: (§1) The enzyme reaction was quenched with three volumes of acetonitrile, and the reaction mixture was centrifuged at 1,500 rpm for ten minutes to provide a supernatant as a sample to be measured. Stability against mouse liver microsomes was measured using HPLC/MS to determine the compounds in the sample.

[3] = Determination of stability against human liver microsomes; type: in vitro ADME; details: human liver microsomes 1 mg protein/mL, 2 mM NADPH, pH 7.4, 37 C; read-out: Stability against human liver microsome NADPH+ T1/2
Experimental: as §1, with “human” for “mouse”

[4] = Determination of water solubility (equilibrium stirring method); type: physicochemical; details: for solubility at 2 h: aqueous buffer, thermodynamic from solid, read-out: Water solubility (LySA PH 6.5)
Experimental: The vessels were sealed, and the contents were sonicated at room temperature (20° C.) for ten minutes, and then stirred with a stirrer for two hours. After reaching solution equilibrium, the solution was separated with a membrane filter, and the solute concentration was determined using HPLC.

MEK = MEK (Homo sapiens, UniProt Q02750); test: Determination of MEK inhibitory activities (Raf-1 kinase cascade assay, MBP phosphorylation, 33P-ATP)
Description: The radioisotope used was [γ^33P]-ATP (Amersham Biosciences, K.K.).

[5] = 50 mM phosphate buffer pH 6.5, room temperature (20 C)

Chain of MEK (Q02750 whole entry): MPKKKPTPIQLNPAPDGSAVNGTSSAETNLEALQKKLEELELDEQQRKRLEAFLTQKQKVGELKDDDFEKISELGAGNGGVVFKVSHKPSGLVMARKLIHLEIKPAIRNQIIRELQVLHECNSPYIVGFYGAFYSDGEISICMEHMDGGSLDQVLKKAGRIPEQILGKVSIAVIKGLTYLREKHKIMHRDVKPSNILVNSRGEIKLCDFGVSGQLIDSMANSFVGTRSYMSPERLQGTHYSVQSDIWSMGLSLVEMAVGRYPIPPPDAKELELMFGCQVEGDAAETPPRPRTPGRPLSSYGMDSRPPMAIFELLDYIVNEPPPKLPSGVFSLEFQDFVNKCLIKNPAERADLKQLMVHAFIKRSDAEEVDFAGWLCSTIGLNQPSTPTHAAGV

SMILES | IC50 [1] [nM] | half-life [2] [h] | half-life [3] [h] | solubility at 2 h [4, 5] [µM] | IC50 (MEK) [nM] | Water solubility (LySA PH 6.5) [4, 5] [µM] | solubility at 2 h ([4]; phosphate buffer, 20 °C, at pH 6.08) [µM] | solubility at 2 h ([4]; phosphate buffer, 20 °C, at pH 6.87) [µM]
O=C(NOCC(O)CO)c1cc(/C=N\OCCO)c(F)c(F)c1Nc1ccc(I)cc1F (racemic) [Compound 58, dl-(Z)—N-(2,3-dihydroxy-propoxy)-3,4-difluoro-2-(2-fluoro-4-iodo-phenylamino)-5-[(2-hydroxy-ethoxyimino)-methyl]-benzamide] | 37 | 0.79 | 0.91 | 127 (≈ 72.3 µg/mL) | 27 |  |  | 
O=C(NOCCO)c1cc(/C=N/OCCO)c(F)c(F)c1Nc1ccc(I)cc1F [Compound 1, (E)-3,4-difluoro-2-(2-fluoro-4-iodo-phenylamino)-N-(2-hydroxy-ethoxy)-5-[(2-hydroxy-ethoxyimino)-methyl]-benzamide] | 80 | 3.94 | 1.08 |  | 100 | 8.3 |  | 
C#Cc1ccc(Nc2c(C(=O)NOCCO)cc(/C=N/OCCO)c(F)c2F)c(F)c1 [Compound 2, (E)-2-(4-ethynyl-2-fluoro-phenylamino)-3,4-difluoro-N-(2-hydroxy-ethoxy)-5-[(2-hydroxy-ethoxyimino)-methyl]-benzamide] | 150 | 2.25 | 1.34 |  | 240 | 415 |  | 
O=C(NOCCO)c1cc(/C=N/O)c(F)c(F)c1Nc1ccc(I)cc1F [Compound 3, (E)-3,4-difluoro-2-(2-fluoro-4-iodo-phenylamino)-N-(2-hydroxy-ethoxy)-5-(hydroxyiminomethyl)-benzamide] | 65 | 0.97 | 1.55 | 6.4 (≈ 3.17 µg/mL) | 78 |  |  | 
O=C(NOCCO)c1cc(/C=N/OCCCO)c(F)c(F)c1Nc1ccc(I)cc1F [Compound 4, (E)-3,4-Difluoro-2-(2-fluoro-4-iodo-phenylamino)-N-(2-hydroxy-ethoxy)-5-[(3-hydroxy-propoxyimino)-methyl]-benzamide] | 45 | > 6 | > 6 |  | 69 |  | 3.8 (≈ 2.1 µg/mL) | 
C#Cc1ccc(Nc2c(C(=O)NOCCO)cc(/C=N/OCCCO)c(F)c2F)c(F)c1 [Compound 5, (E)-2-(4-Ethynyl-2-fluoro-phenylamino)-3,4-Difluoro-N-(2-hydroxy-ethoxy)-5-[(3-hydroxy-propoxyimino)-methyl]-benzamide] | 170 | > 6 | 4.12 |  | 150 |  |  | 426 (≈ 192 µg/mL)
CC(O)CO/N=C/c1cc(C(=O)NOCCO)c(Nc2ccc(I)cc2F)c(F)c1F (stereo not drawn) [Compound 15, (E)-3,4-difluoro-2-(2-fluoro-4-iodo-phenylamino)-N-(2-hydroxy-ethoxy)-5-[(2-hydroxy-propoxyimino)-methyl]-benzamide] | 137 | 0.978 | 2.67 | 8 (≈ 4.43 µg/mL) | 110 |  |  | 
CN(C)CCO/N=C/c1cc(C(=O)NOCCO)c(Nc2ccc(I)cc2F)c(F)c1F [Compound 16, (E)-5-[(2-dimethylamino-ethoxyimino)-methyl]-3,4-difluoro-2-(2-fluoro-4-iodo-phenylamino)-N-(2-hydroxy-ethoxy)-benzamide] | 210 | 3.08 | > 6 | 2400 (≈ 1360 µg/mL) | 244 |  |  | 
O=C(NOCCO)c1cc(/C=N/OCCN2CCOCC2)c(F)c(F)c1Nc1ccc(I)cc1F [Compound 18, (E)-3,4-difluoro-2-(2-fluoro-4-iodo-phenylamino)-N-(2-hydroxy-ethoxy)-5-[(2-morpholin-4-yl-ethoxyimino)-methyl]-benzamide] | 140 | > 6 | > 6 | 164 (≈ 99.8 µg/mL) | 262 |  |  | 
O=C(NOCCO)c1cc(/C=N/OCCN2CCC(O)CC2)c(F)c(F)c1Nc1ccc(I)cc1F [Compound 19, (E)-3,4-difluoro-2-(2-fluoro-4-iodo-phenylamino)-N-(2-hydroxy-ethoxy)-5-{[2-(4-hydroxy-piperidin-1-yl)-ethoxyimino]-methyl}-benzamide] | 750 | > 6 | > 6 | 2910 (≈ 1810 µg/mL) | 693 |  |  | 
O=C(NOCCO)c1cc(/C=N/OCCN2CCC[C@H]2CO)c(F)c(F)c1Nc1ccc(I)cc1F [Compound 20, (E)-3,4-difluoro-2-(2-fluoro-4-iodo-phenylamino)-N-(2-hydroxy-ethoxy)-5-{[2-((S)-hydroxymethyl-pyrrolidin-1-yl)-ethoxyimino]-methyl}-benzamide] | 643 | > 6 | > 6 | 1830 (≈ 1140 µg/mL) | 696 |  |  | 
O=C(NOCCO)c1cc(/C=N/OCCN2CCCC2)c(F)c(F)c1Nc1ccc(I)cc1F [Compound 21, (E)-3,4-difluoro-2-(2-fluoro-4-iodo-phenylamino)-N-(2-hydroxy-ethoxy)-5-[(2-pyrrolidin-1-yl-ethoxyimino)-methyl]-benzamide] | 651 | > 6 | > 6 | 1480 (≈ 879 µg/mL) | 802 |  |  | 
NCCO/N=C/c1cc(C(=O)NOCCO)c(Nc2ccc(I)cc2F)c(F)c1F [Compound 22, (E)-5-[(2-amino-ethoxyimino)-methyl]-3,4-difluoro-2-(2-fluoro-4-iodo-phenylamino)-N-(2-hydroxy-ethoxy)-benzamide] | 36 | > 6 | > 6 | 146 (≈ 78.6 µg/mL) | 75 |  |  | 
CC(=O)NCCO/N=C/c1cc(C(=O)NOCCO)c(Nc2ccc(I)cc2F)c(F)c1F [Compound 24, (E)-5-[(2-acetylamino-ethoxyimino)-methyl]-3,4-difluoro-2-(2-fluoro-4-iodo-phenylamino)-N-(2-hydroxy-ethoxy)-benzamide] | 86 | > 6 | > 6 |  | 48 | 16 |  | 
CC(=O)N(C)CCO/N=C/c1cc(C(=O)NOCCO)c(Nc2ccc(I)cc2F)c(F)c1F [Compound 25, (E)-5-{[2-(acetyl-methyl-amino)-ethoxyimino]-methyl}-3,4-difluoro-2-(2-fluoro-4-iodo-phenylamino)-N-(2-hydroxyethoxy)-benzamide] | 44 | 3.3 | 0.813 | 54 (≈ 32.1 µg/mL) | 30 |  |  | 
O=C(NOCCO)c1cc(/C=N/OCCN2CCNC2=O)c(F)c(F)c1Nc1ccc(I)cc1F [Compound 27, (E)-3,4-difluoro-2-(2-fluoro-4-iodo-phenylamino)-N-(2-hydroxy-ethoxy)-5-{[2-(2-oxo-imidazolidin-1-yl)-ethoxyimino]-methyl}-benzamide] | 69 | > 6 | 2.41 | 10 (≈ 6.07 µg/mL) | 203 |  |  | 
O=C(NOCCO)c1cc(/C=N/OCc2ncc[nH]2)c(F)c(F)c1Nc1ccc(I)cc1F [Compound 28, (E)-3,4-difluoro-2-(2-fluoro-4-iodo-phenylamino)-N-(2-hydroxy-ethoxy)-5-[(1H-imidazol-2-ylmethoxyimino)-methyl]-benzamide] | 50 | > 6 | > 6 | < 31.3 | 20 |  |  | 
C#Cc1ccc(Nc2c(C(=O)NOCCO)cc(/C=N/OCCC(=O)NC)c(F)c2F)c(F)c1 [Compound 41, (E)-2-(4-ethynyl-2-fluoro-phenylamino)-3,4-difluoro-N-(2-hydroxy-ethoxy)-5-[(2-methylcarbamoyl-ethoxyimino)-methyl]-benzamide] | 186 | 3.54 | > 6 | 347 (≈ 166 µg/mL) | 64.7 |  |  | 
CN(C)C(=O)CCO/N=C/c1cc(C(=O)NOCCO)c(Nc2ccc(I)cc2F)c(F)c1F [Compound 42, (E)-3,4-difluoro-2-(2-fluoro-4-iodo-phenylamino)-N-(2-hydroxy-ethoxy)-5-[dimethylcarbamoylethoxyimino-methyl]-benzamide] | 91 | > 6 | 1.74 | 29 (≈ 17.2 µg/mL) | 56 |  |  | 
CNC(=O)CO/N=C/c1cc(C(=O)NOCCO)c(Nc2ccc(I)cc2F)c(F)c1F [Compound 43, (E)-3,4-difluoro-2-(2-fluoro-4-iodo-phenylamino)-N-(2-hydroxy-ethoxy)-5-[methylcarbamoylmethoxyimino-methyl]-benzamide] | 77 | > 6 | > 6 | 57 (≈ 32.3 µg/mL) | 119 |  |  | 
CNC(=O)CCCO/N=C/c1cc(C(=O)NOCCO)c(Nc2ccc(I)cc2F)c(F)c1F [Compound 44] | 328 | > 6 | > 6 | 6 (≈ 3.57 µg/mL) | 25 |  |  | 
